Tests used:
[1] = system: histamine H1-receptor; settings: more potent than Z-triprolidine; cited from earlier work
[2] = after application of 5% lidocaine plaster to skin; cited from earlier work
[3] = molecular target: mu-opioid receptors (Homo sapiens, UniProt P35372); settings: relative to morphine; cited from earlier work
[4] = 100-400 mg/d; 8 patients with classic TN; cited from earlier work
[5] = 10 patients with TN; cited from earlier work
[6] = 23 patients, add-on therapy; cited from earlier work
[7] = PHN; study in Japan; cited from earlier work
[8] = Case report: patient with classic trigeminal neuralgia treated with trimeprazine; format: in vivo, human
Description: A middle-aged patient suffers from classic trigeminal neuralgia presenting with sharp, lancinating, severe pain in their left face precipitated by showering, eating, facial animation, touch of their facial skin and nose, and brushing their teeth. The episodes of pain are initiated by the stimuli above and immediately stop all other activity until they subside in several seconds. Their behavior is modified to avoid the stimuli above, even affecting how they speak and eats. […] Their daily activities are dominated by fear of inducing another attack. […] They had no remedy for these terrible pains before treatment with trimeprazine. The patient began treatment with trimeprazine 5 mg morning and evening. The second day of the course the intensity and frequency of the attacks were in decline. […] Since then, they have noted some discomfort in their face but not the sharp, almost unbearable pain of before. […] On most days they take no medication now. […] They note that this is a common side-effect for them to experience if a medication has any potential for causing drowsiness.

[9] = Observed effect of trimeprazine on pain of post-herpetic neuralgia and trigeminal neuralgia; settings: in vivo
Description: Post-herpetic pain involves the dorsal root ganglion (DRG), and trigeminal neuralgia involves the trigeminal ganglion (TG). Both the DRG and the TG are involved in the perception of itch and pain. Chronic neuropathic pain is a hypersensitivity state that results from peripheral and central sensitization. It is increasingly appreciated that chronic itch and chronic cough are also hypersensitivity syndromes.

mu-opioid receptors, sequence (P35372 whole entry): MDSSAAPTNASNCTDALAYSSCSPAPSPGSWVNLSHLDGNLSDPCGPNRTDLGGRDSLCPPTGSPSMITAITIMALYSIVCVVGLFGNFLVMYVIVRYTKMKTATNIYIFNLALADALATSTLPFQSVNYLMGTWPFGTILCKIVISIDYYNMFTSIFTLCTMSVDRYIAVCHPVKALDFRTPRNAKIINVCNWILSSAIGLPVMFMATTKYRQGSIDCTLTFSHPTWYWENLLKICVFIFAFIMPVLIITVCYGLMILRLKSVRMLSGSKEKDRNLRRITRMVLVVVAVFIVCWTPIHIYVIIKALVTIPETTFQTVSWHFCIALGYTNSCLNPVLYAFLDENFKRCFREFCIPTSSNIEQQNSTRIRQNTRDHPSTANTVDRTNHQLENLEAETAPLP

In the case of `Cc1ccc(/C(=C\CN2CCCC2)c2ccccn2)cc1` [E-triprolidine], the “potency relative to Z-triprolidine” value [1] is given as 1000 fold.

For `CCN(CC)CC(=O)Nc1c(C)cccc1C` [Lidocaine], the “share of the drug that reaches the systemic circulation” value [2] is listed as 3%.

For `CC[C@@H](c1cccc(O)c1)[C@@H](C)CN(C)C` [Tapentadol], the “potency in binding mu-opioid receptors, times less potent than morphine” value [3] is listed as 18 times.

For `CC1(C)O[C@@H]2[C@@H](CO[C@@]3(COS(N)(=O)=O)OC(C)(C)O[C@@H]23)O1` [Topiramate], the “patients in whom the drug was found effective” value [4] is listed as 75%.

In the case of `CC[C@@H](C(N)=O)N1CCCC1=O` [levetiracetam, Levetiracetam], the improvement [5] is listed as 50-90% and the “reduction in number of daily attacks” value [6] is listed as 62%.

In the case of `CC(C)C[C@H](CN)CC(=O)O` [pregabalin, Pregabalin], the “analgesic property relative to gabapentin” value [7] is given as 6 times.

For `CC(CN(C)C)CN1c2ccccc2Sc2ccccc21` (stereo not drawn) [trimeprazine], the side-effects ([8]; 5 mg tablets, one patient) was “no side-effects other than drowsiness”, the pain ([8]; after four days of medication, 5 mg morning and evening) was “all pain was gone” and the “residual discomfort in face” value ([8]; later use, ½ to 1 pill of 5 mg once or twice a day) was “successfully alleviated”. The “intensity and frequency of the attacks” value ([8]; second day of the course, 5 mg morning and evening, one patient) was “in decline” and the “effect on pain of post-herpetic neuralgia and trigeminal neuralgia” value [9] was “observed to treat the pain”.

From patent publication US20250288591A1, “TRIMEPRAZINE FOR USE IN TREATING TRIGEMINAL NEURALGIA AND FOR REDUCING PAIN RELATED THERETO” (UNDAUNTED BIO, INC., priority 2022, published 2025)
